Test results published in ChEMBL document CHEMBL1201862, “PubChem BioAssay data set” (2004).
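Method: 48-hour compound exposure of cells in 96-well plates, five concentrations, linear interpolation of endpoints. The concentration for 50% growth inhibition is given as GI50.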 Calls of active or inactive are those of the source. No stated cut-off is given here; in the data, active = GI50 up to about 1.1 µM and inactive = higher.

Columns and labels:
Assay in all cases: NCI anticancer screen, dose series, 48 h
T47D = system: T47D
SF-268 = system: SF-268
SF-539 = system: SF-539
NCI-H23 = system: NCI-H23
IGROV-1 = system: IGROV-1
SNB-19 = system: SNB-19
A549 = system: A549
EKVX = system: EKVX
HCT-116 = system: HCT-116
CAKI-1 = system: CAKI-1
NCI/ADR-RES = system: NCI/ADR-RES
786-0 = system: 786-0
RXF 393 = system: RXF 393
SK-MEL-28 = system: SK-MEL-28
MDA-MB-435 = system: MDA-MB-435
NCI-H226 = system: NCI-H226
OVCAR-5 = system: OVCAR-5
K562 = system: K562
Malme-3M = system: Malme-3M
A498 = system: A498

Measured: GI50

Cc1ccc(C)c2c1CC(Cc1ccccc1C(=O)O)C2=O (centres undefined)
inactive: T47D > 100 µM | SF-268 > 100 µM | SF-539 > 100 µM | NCI-H23 > 100 µM | IGROV-1 > 100 µM | SNB-19 > 100 µM | A549 > 100 µM | EKVX > 100 µM | HCT-116 > 100 µM | CAKI-1 > 100 µM | NCI/ADR-RES > 100 µM | 786-0 > 100 µM | RXF 393 83.2 µM | SK-MEL-28 > 100 µM | MDA-MB-435 > 100 µM | NCI-H226 > 100 µM | OVCAR-5 > 100 µM | K562 > 100 µM | Malme-3M > 100 µM

Cc1cc2nc3c(C#N)c4c(c(Nc5ccc(F)cc5)n3c2cc1C)CCC4
inactive: T47D > 100 µM | SF-268 > 100 µM | SF-539 > 100 µM | NCI-H23 > 100 µM | IGROV-1 > 100 µM | SNB-19 > 100 µM | A549 > 100 µM | EKVX > 100 µM | HCT-116 > 100 µM | CAKI-1 > 100 µM | NCI/ADR-RES > 100 µM | 786-0 > 100 µM | RXF 393 > 100 µM | SK-MEL-28 > 100 µM | MDA-MB-435 > 100 µM | NCI-H226 > 100 µM | OVCAR-5 > 100 µM | K562 > 100 µM | Malme-3M 52.2 µM

COc1cc(/C=C/c2ccc(O)c(OC)c2)cc(OC)c1
inactive: T47D 33.9 µM | SF-268 34.4 µM | NCI-H23 26.5 µM | IGROV-1 39.9 µM | SNB-19 36.4 µM | A549 25.6 µM | EKVX 28.2 µM | HCT-116 27.5 µM | CAKI-1 27.1 µM | NCI/ADR-RES 31 µM | A498 21.6 µM | 786-0 45.5 µM | RXF 393 22.6 µM | SK-MEL-28 33.1 µM | OVCAR-5 31.6 µM | K562 26.4 µM | Malme-3M 30.7 µM

NCCN(CCN(C(=O)Nc1ccccc1)c1ccccc1)C(=O)Nc1ccccc1
inactive: T47D 20.7 µM | SF-268 18.6 µM | NCI-H23 24.3 µM | IGROV-1 17.6 µM | SNB-19 28.6 µM | A549 30.6 µM | EKVX 23.6 µM | HCT-116 16.3 µM | NCI/ADR-RES 30.8 µM | A498 18.3 µM | 786-0 24.9 µM | RXF 393 14.7 µM | SK-MEL-28 19 µM | NCI-H226 32.2 µM | OVCAR-5 19 µM | K562 44.4 µM | Malme-3M 17.1 µM

CCC1(O)CC(OC2CC(N(C)C)C(OC3CC(O)C(OC4CCC(=O)C(C)O4)C(C)O3)C(C)O2)c2c(O)c3c(c(O)c2C1C(=O)OC)C(=O)c1cccc(O)c1C3=O (centres undefined)
active: T47D 0.0154 µM | SF-268 0.0316 µM | SF-539 0.0101 µM | NCI-H23 0.00589 µM | IGROV-1 0.00178 µM | SNB-19 0.00457 µM | A549 0.00339 µM | EKVX 0.012 µM | HCT-116 0.000396 µM | CAKI-1 0.000267 µM | NCI/ADR-RES 0.0109 µM | 786-0 0.0016 µM | SK-MEL-28 0.00995 µM | MDA-MB-435 0.0067 µM | NCI-H226 0.0126 µM | OVCAR-5 0.00575 µM | K562 0.000274 µM | Malme-3M 0.0125 µM

CN1CCN(C(=S)N(C(=O)c2ccc(Cl)cc2)c2ccccc2)CC1
inactive: T47D > 100 µM | SF-268 > 100 µM | NCI-H23 > 100 µM | IGROV-1 > 100 µM | SNB-19 > 100 µM | A549 > 100 µM | 786-0 > 100 µM | RXF 393 > 100 µM | SK-MEL-28 > 100 µM | MDA-MB-435 > 100 µM | NCI-H226 > 100 µM | OVCAR-5 > 100 µM | K562 > 100 µM | Malme-3M > 100 µM

CCOP(=O)(OCC)C1CC(n2cc(C)c(=O)[nH]c2=O)OC1CO (centres undefined)
inactive: T47D > 100 µM | SF-268 > 100 µM | SF-539 > 100 µM | NCI-H23 99.1 µM | IGROV-1 > 100 µM | SNB-19 > 100 µM | A549 > 100 µM | HCT-116 > 100 µM | CAKI-1 > 100 µM | A498 > 100 µM | 786-0 > 100 µM | RXF 393 > 100 µM | SK-MEL-28 > 100 µM | NCI-H226 > 100 µM | OVCAR-5 83.4 µM | K562 > 100 µM | Malme-3M > 100 µM

CN(C)c1ccc(-c2c(C#N)c(S)n(NS(=O)(=O)c3ccccc3)c(=O)c2C#N)cc1
inactive: SF-539 18.8 µM | NCI-H23 30.8 µM | IGROV-1 15.8 µM | SNB-19 48.1 µM | A549 37.9 µM | EKVX 32.6 µM | HCT-116 27.2 µM | CAKI-1 23.8 µM | NCI/ADR-RES 19.3 µM | A498 22.3 µM | 786-0 17.1 µM | RXF 393 20.4 µM | SK-MEL-28 36.1 µM | MDA-MB-435 21.5 µM | OVCAR-5 55.6 µM | K562 30.7 µM | Malme-3M 26.5 µM

[O-][S+](Nc1ccccc1)c1cccc(Cl)c1 (centres undefined)
inactive: SF-268 44.1 µM | SF-539 27.5 µM | NCI-H23 42.7 µM | IGROV-1 46.3 µM | SNB-19 > 100 µM | A549 39.7 µM | EKVX 27 µM | HCT-116 45.2 µM | CAKI-1 91 µM | NCI/ADR-RES 34.6 µM | 786-0 > 100 µM | RXF 393 51.1 µM | SK-MEL-28 68.5 µM | MDA-MB-435 72.1 µM | NCI-H226 > 100 µM | OVCAR-5 > 100 µM | K562 37.3 µM | Malme-3M > 100 µM

CC1CNC(NS(=O)(=O)c2cc(C(=O)Nc3ccc(Cl)cc3)c(Cl)cc2S)=NN1 (centres undefined)
inactive: SF-268 11.5 µM | SF-539 30.8 µM | NCI-H23 27.4 µM | IGROV-1 36.1 µM | SNB-19 35.1 µM | A549 28.6 µM | EKVX 63 µM | HCT-116 27 µM | CAKI-1 51.5 µM | NCI/ADR-RES 36.6 µM | A498 18.1 µM | 786-0 42.1 µM | SK-MEL-28 22.3 µM | MDA-MB-435 23.4 µM | NCI-H226 27.5 µM | OVCAR-5 38.5 µM | K562 31.1 µM | Malme-3M 17.9 µM

Cc1c(N2C(=O)C(Cl)C2c2ccc(Cl)cc2)c(=O)n(-c2ccccc2)n1C (centres undefined)
inactive: T47D 88.3 µM | SF-268 > 100 µM | SF-539 36.1 µM | NCI-H23 23.9 µM | IGROV-1 27.1 µM | A549 > 100 µM | EKVX 71 µM | HCT-116 18.8 µM | CAKI-1 > 100 µM | NCI/ADR-RES > 100 µM | 786-0 33.1 µM | RXF 393 > 100 µM | MDA-MB-435 23.4 µM | NCI-H226 > 100 µM | OVCAR-5 > 100 µM | K562 45.5 µM | Malme-3M > 100 µM

Cc1ccc(-n2cc(-c3ccc(Cl)cc3)c3c2N=CN2N=C(c4cccs4)NC32)cc1 (centres undefined)
inactive: SF-268 17.8 µM | SF-539 16.2 µM | NCI-H23 15.3 µM | IGROV-1 14.2 µM | SNB-19 17.9 µM | A549 21.9 µM | EKVX 18.1 µM | HCT-116 5.13 µM | CAKI-1 16 µM | NCI/ADR-RES 9.68 µM | A498 14.7 µM | 786-0 4.28 µM | RXF 393 12.4 µM | SK-MEL-28 > 100 µM | MDA-MB-435 38.7 µM | NCI-H226 19.3 µM | OVCAR-5 11.1 µM | K562 11.7 µM | Malme-3M 38.4 µM

Cc1cc(C)nc(NS(=O)(=O)c2ccc(Nc3nnc(/C=C/c4c(O)ccc5ccccc45)c(=O)n3N)cc2)n1
inactive: T47D 11.1 µM | SF-268 33.7 µM | NCI-H23 19.1 µM | IGROV-1 27.9 µM | SNB-19 43.1 µM | A549 30.7 µM | EKVX 38.4 µM | HCT-116 17.9 µM | CAKI-1 22.1 µM | NCI/ADR-RES 20 µM | 786-0 28.6 µM | RXF 393 18.6 µM | MDA-MB-435 20.1 µM | OVCAR-5 39.3 µM | K562 27.6 µM | Malme-3M 36.6 µM

O=C1CCCC2=C1C(c1ccc3c(c1)OCO3)Nc1ccc3ccccc3c12 (centres undefined)
inactive: SF-268 > 100 µM | SF-539 > 100 µM | NCI-H23 > 100 µM | IGROV-1 > 100 µM | SNB-19 > 100 µM | A549 > 100 µM | EKVX 36.9 µM | HCT-116 > 100 µM | CAKI-1 > 100 µM | NCI/ADR-RES 55.1 µM | A498 > 100 µM | 786-0 > 100 µM | RXF 393 > 100 µM | SK-MEL-28 > 100 µM | MDA-MB-435 > 100 µM | NCI-H226 > 100 µM | OVCAR-5 > 100 µM | Malme-3M > 100 µM

O=C(/N=N/c1ccccc1Br)NNc1ccccc1Br
inactive: T47D 13.7 µM | SF-268 > 100 µM | NCI-H23 48.9 µM | IGROV-1 55.6 µM | SNB-19 > 100 µM | A549 64.9 µM | HCT-116 24.7 µM | CAKI-1 33 µM | A498 58.7 µM | 786-0 72.1 µM | SK-MEL-28 53.7 µM | MDA-MB-435 84.5 µM | NCI-H226 > 100 µM | OVCAR-5 > 100 µM | K562 27.3 µM | Malme-3M 38.2 µM

Clc1ccc(-c2nc3ccc4ccccc4c3c3c2CCCC3)cc1
inactive: SF-268 > 100 µM | SF-539 > 100 µM | NCI-H23 > 100 µM | IGROV-1 > 100 µM | SNB-19 > 100 µM | A549 63.4 µM | EKVX 30.1 µM | HCT-116 50.5 µM | CAKI-1 > 100 µM | NCI/ADR-RES > 100 µM | A498 > 100 µM | 786-0 75.2 µM | RXF 393 > 100 µM | SK-MEL-28 > 100 µM | MDA-MB-435 > 100 µM | NCI-H226 > 100 µM | OVCAR-5 1.55 µM | K562 > 100 µM | Malme-3M > 100 µM
